Experimental data published in patent US20230026163A1, “ANTICANCER COMPOUND AND MEDICAL USE THEREOF” (ASCENTAWITS PHARMACEUTICALS, LTD., priority 2019, published 2023).
Where two headings read alike, the source gives them in different places.

What was measured:
H460 cell line [1] = assay: Cytotoxicity comparison of TH-302 and compound 01 on H460 at different test times; format: cell-based, human; details: Homo sapiens, NCI-H460, 2 h, H460, exposure for 2 hours, air
Source text: The cytotoxicity test results of TH-302 and compound 01 on H460 cell line under different test times in the same laboratory, the same operator, and the same experimental conditions.

AA8 = assay: Cytotoxicity on cell lines of different species: AA8; format: cell-based
H460 cell line [2] = assay: Hypoxia-dependent cytotoxicity experiment (2 hours exposure, air or N2, CTG); format: cell-based; details: Homo sapiens, then 3 days
Procedure: To determine the effect of the compounds of the present disclosure on cancer cell proliferation, these compounds were tested for cancer cell anti-proliferative activity in a porous CTG-based assay. Cell growth was compared in the present (treatment groups) and the absence of the test compound. 10,000 cells/well/495 μL of medium was used to test the following cell line, a human tumor cell line of H460 non-small cell lung cancer. The cells were seeded on glass-inserts located in each well of 24-well plates with a density and medium as specified above. 24 hours later, the plates were divided into 2 groups, hypoxia (using N2) group and air group. TH-302 at the concentrations from 100, 10, 0.1 to 0.01 μM, and the test compounds at the concentrations from 10, 1, 0.1, 0.01, 0.001 to 0.0001 were added to each well (500 μL volume) of the treatment groups. The final DMSO concentration in each well was lower than or equal to 1%. The cells in the hypoxia group were incubated for 2 hours in an ELECTROTEK hypoxia workstation. The cells in the air group were incubated for 2 hours in a standard culture incubator. 2 hours later, the test compounds were removed from each well. The cells were washed with 500 μL of medium and incubated in 500 μL of fresh medium for 3 days. 3 days later, 200 μL of medium per well was discarded. 60 μL of CTG was added to the wells, and the plates were placed at room temperature for 15 minutes in the dark. 100 μL of medium from each well of the 24-well plates was transferred to 96-well plates. The chemiluminescence signal values were read with an M5 full-band multi-mode-function microplate reader, and integration=750 ms. The compounds of control 1 and control 2 were used as controls.

P-glycoprotein = P-glycoprotein (Homo sapiens, UniProt P08183); design: expressed in transfected cells; host or cells: MDCKII-MDR1 (MDCKII canine kidney cells); details: cited from earlier work
H460 = assay: Cytotoxicity on cell lines of different species: H460; format: cell-based; details: NCI-H460; H460, Human; exposure time: 72 h
[3] = tested on: H460 non-small cell lung cancer; details: cited from earlier work
Plasma stability, human = format: in vitro ADME; details: 5 μM, 37° C., after 30 minutes
Procedure: (§1) Frozen plasma was melted immediately in a water bath at 37° C. […] The supernatants were collected into new tubes, respectively. pH values of the plasma were checked and recorded. Note: a, no more 2 times melted plasma was used since the sample was received; b, the plasma in pH 7 to pH 8 was used.
(§2) 1 mM of working solution of the test compounds and the control compound, propantheline, were prepared in DMSO. 1 mM of working solution of the control compound in […] was prepared in acetonitrile. 4 μL of the working solutions were added to 796 μL of pre-incubated plasma respectively to achieve a final concentration of 5 μM. The final concentration of solvent was 0.5%.
(§3) Aliquots of 50 μL of labelled plasma were transferred to new tubes and incubated in a water bath at 37° C. at approximately 60 rpm for 2 hours. The test was performed in duplicate. […] 50 μL of the labeled plasma was added to new tubes containing 300 μL of the quench solution of room temperature, i.e., the sample with a preparation time of 0. The samples were vortexed to mix for 5 minutes. […] 100 μL of the supernatant was transferred to new plates.

Plasma stability, mouse = format: in vitro ADME; details: Mouse plasma, 5 μM, 37° C., after 30 minutes
Procedure: as §1, §2
as §3, with “Aliquots of 50 μL of labelled plasma were transferred to new tubes and incubated in a water bath at 37° C. at approximately 60 rpm for 2 hours.” left out

Plasma stability, monkey = format: in vitro ADME; details: 5 μM, 37° C., after 30 minutes
Procedure: as §1, §2
as §3, with “Aliquots of 50 μL of labelled plasma were transferred to new tubes and incubated in a water bath at 37° C. at approximately 60 rpm for 2 hours.” left out

Plasma stability, dog = format: in vitro ADME; details: Dog plasma, 5 μM, 37° C., after 30 minutes
Procedure: as §1, §2
as §3, with “Aliquots of 50 μL of labelled plasma were transferred to new tubes and incubated in a water bath at 37° C. at approximately 60 rpm for 2 hours.” left out

Plasma stability, rat = format: in vitro ADME; details: Rat plasma, 5 μM, 37° C., after 30 minutes
Procedure: as §1, §2
as §3, with “Aliquots of 50 μL of labelled plasma were transferred to new tubes and incubated in a water bath at 37° C. at approximately 60 rpm for 2 hours.” left out

H460 cell line [4] = details: test results in WO2016210175A1 and CN108024974A, cited from earlier work
[5] = test results in WO2016210175A1 and CN108024974A

P-glycoprotein, sequence (P08183 whole entry): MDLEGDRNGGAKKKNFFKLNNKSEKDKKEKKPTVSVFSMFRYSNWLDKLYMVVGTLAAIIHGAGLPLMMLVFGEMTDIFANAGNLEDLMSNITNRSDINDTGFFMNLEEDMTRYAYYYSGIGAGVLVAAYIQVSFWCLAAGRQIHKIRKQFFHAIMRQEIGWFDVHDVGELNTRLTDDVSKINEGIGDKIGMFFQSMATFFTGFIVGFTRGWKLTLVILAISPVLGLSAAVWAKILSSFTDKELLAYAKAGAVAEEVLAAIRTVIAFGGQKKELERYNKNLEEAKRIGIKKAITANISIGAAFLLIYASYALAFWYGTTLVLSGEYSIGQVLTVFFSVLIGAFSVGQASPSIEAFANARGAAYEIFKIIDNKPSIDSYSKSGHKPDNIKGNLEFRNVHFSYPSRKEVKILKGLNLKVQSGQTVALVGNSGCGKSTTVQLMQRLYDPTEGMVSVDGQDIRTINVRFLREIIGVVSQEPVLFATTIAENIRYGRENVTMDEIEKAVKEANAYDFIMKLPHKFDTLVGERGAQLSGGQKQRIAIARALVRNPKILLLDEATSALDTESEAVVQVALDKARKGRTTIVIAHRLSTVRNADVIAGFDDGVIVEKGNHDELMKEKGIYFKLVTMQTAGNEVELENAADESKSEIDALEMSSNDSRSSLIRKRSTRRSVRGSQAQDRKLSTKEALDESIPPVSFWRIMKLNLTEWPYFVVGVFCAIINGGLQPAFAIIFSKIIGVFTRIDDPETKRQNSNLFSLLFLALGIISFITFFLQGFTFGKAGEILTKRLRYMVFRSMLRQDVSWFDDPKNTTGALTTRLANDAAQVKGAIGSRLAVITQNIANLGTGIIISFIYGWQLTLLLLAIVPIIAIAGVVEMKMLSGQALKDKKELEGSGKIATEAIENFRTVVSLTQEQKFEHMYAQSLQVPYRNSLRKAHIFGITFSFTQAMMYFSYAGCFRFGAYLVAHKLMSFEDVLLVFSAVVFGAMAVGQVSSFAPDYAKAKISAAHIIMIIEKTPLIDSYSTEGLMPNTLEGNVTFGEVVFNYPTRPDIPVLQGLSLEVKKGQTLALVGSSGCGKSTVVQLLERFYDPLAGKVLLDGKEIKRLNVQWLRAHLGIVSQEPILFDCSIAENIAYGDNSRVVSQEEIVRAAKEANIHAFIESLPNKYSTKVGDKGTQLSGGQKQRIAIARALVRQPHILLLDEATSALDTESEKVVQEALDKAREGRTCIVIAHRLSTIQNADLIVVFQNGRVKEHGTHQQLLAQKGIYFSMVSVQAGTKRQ

## Cn1c(COP(=O)(NCCBr)NCCBr)cnc1[N+](=O)[O-] [Control 1, Evofosfamide, reference compound]
H460 cell line [1]; Time 1
  IC50: 23 µM
H460 cell line [1]; Time 2
  IC50: 8 µM
H460 cell line [1]; Time 3
  IC50: 3.3 µM
AA8; CHO-AA8, AA8, Rat, exposure time: 72 h
  IC50: 830 µM
AA8; IC50 AA8 / IC50 H460
  Multiple: Rat/Human: 41.5
H460 cell line [2]; NCI-H460, H460, air, read-out: Normoxia: IC50
  IC50: 7.98 µM
H460 cell line [2]; NCI-H460, H460, hypoxia (N2), read-out: N2: IC50
  IC50: 0.0479 µM
P-glycoprotein
  P-gp substrate (known / earlier data and literature): P-gp substrate
H460
  IC50: 20 µM
[3]; value from published literature (Meng et al., Mol Cancer Ther 2012)
  IC50: 0.8 µM

## CC(C)[N+](C)(CCOC(=O)C1c2ccccc2Oc2ccccc21)C(C)C [Propantheline, reference compound]
Plasma stability, human
  Remaining percentage: 0.07%
Plasma stability, mouse
  Remaining percentage: 5.33%
Plasma stability, monkey
  Remaining percentage: 48.11%

## CC[C@H](C)C(=O)O[C@H]1C[C@@H](C)C=C2C=C[C@H](C)[C@H](CC[C@@H]3C[C@@H](O)CC(=O)O3)[C@H]21 [Lovastatin, reference compound]
Plasma stability, dog
  Remaining percentage: 37.6%
Plasma stability, rat
  Remaining percentage: 0.21%

## C[C@@H](OP(=O)(N1CC1)N1CC1)c1ccc([N+](=O)[O-])cc1 [TH2565]
[3]; [5]
  IC50: 0.1 µM
H460 cell line [4]; read-out: N2: IC50
  IC50: 18 µM
H460 cell line [4]; read-out: Normoxia: IC50
  IC50: 0.1 µM

## C[C@H](OP(=O)(N1CC1)N1CC1)c1ccc([N+](=O)[O-])cc1 [TH2566]
[3]; [5]
  IC50: 0.1 µM
H460 cell line [4]; read-out: N2: IC50
  IC50: 23 µM
H460 cell line [4]; read-out: Normoxia: IC50
  IC50: 0.1 µM
